We go through two compounds from patent US9034887B2, “Dihydroorotate dehydrogenase as antifungal drug target and quinazolinone-based inhibitors thereof” (F2G Limited, priority 2008, dated 2015).

In assay [1] the target is T1, Recombinant DHODH from C. albicans (Candida albicans, UniProt Q874I4).
T1 construct: His-tag; NusA (Nus-tag) fusion of vector pET43.1 (own knowledge of the vector) (N); made in house; host or cells: E. coli BL21 DE3
T1 sequence (Q874I4 57-444): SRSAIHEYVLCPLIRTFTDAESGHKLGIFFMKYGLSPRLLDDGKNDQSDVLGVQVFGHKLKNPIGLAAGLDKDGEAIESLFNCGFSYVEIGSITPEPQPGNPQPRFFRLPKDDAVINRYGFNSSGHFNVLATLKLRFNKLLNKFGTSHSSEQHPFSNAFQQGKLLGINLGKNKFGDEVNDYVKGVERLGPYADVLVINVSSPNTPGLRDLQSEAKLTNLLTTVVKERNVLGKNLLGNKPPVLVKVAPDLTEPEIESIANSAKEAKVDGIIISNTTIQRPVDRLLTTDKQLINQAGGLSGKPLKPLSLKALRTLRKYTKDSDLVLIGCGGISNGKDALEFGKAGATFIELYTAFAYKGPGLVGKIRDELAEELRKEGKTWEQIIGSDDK
Description: DHODH inhibition screen (DCIP reduction, 600 nm), C. albicans enzyme. Type of assay: biochemical. How it is done: (§1) 1. The following buffer and stock solution were prepared:
(§2) Coenzyme Q2 (Sigma) was dissolved in DMSO to give a concentration of 10 mg/ml. […] The stock solution was made with 127.36 μl DHO, 127.36 μl DCIP and 318.4 μl Coenzyme Q2, made up to 80 ml with Buffer A. Final concentrations in assay wells were; DHO, 500 μM; Coenzyme Q, 50 μM; DCIP, 100 μM.
(§3) 2. […] Duplicate sets of plates were used such that one set received enzyme while a control set received no enzyme.
(§4) 3. […] Then 20 μl of DHODH solution was added to all the +enzyme plates and 20 μl of Buffer A was added to all the control −enzyme plates.
(§5) 4. 20 μl of DHO/Coenzyme Q2/DCIP solution was added to all the wells, after which plates were incubated at room temperature for […] and then read on a Tecan Safire spectrophotometer at 600 nm.
(§6) Recombinant DHODH from human or C. albicans was assayed in the same way. It is necessary to adjust the enzyme concentration and reaction time to take into account variations in activity of enzyme batches, thus the incubation time was 20 minutes for the C. albicans enzyme and 34 minutes for the human enzyme.

Another assay deals with Aspergillus fumigatus. Kind of assay: MIC in YAG medium, A. fumigatus. The class given is cell-based. The conditions noted are these: 24 hrs at 35° C., >70% growth inhibition, read-out: MIC grade, A. fumigatus. The method, then:
(§7) Between 1 and 5 mgs of compound were accurately weighed out into a sterile Eppendorf tube. The compound was dissolved in DMSO to give a solution containing 5 mg/mL. Tubes were stored at −20° C. until required.
(§8) On the day of testing thawed solutions were vortex mixed to ensure homogeneity. 30 μL of solution was removed and added to 570 μL of sterile water in a separate sterile Eppendorf. The thoroughly mixed solution was used to prepare a series of doubling dilutions in water, in a deep well plate. Thirteen replicate plates were prepared using a Minitrak by aspirating 20 μL from each well into eleven clear polystyrene 96 well plates.
(§9) Spores of Aspergillus spp. (Aspergillus fumigatus [two strains], Aspergillus terreus [two strains], Aspergillus niger and Aspergillus flavus) were harvested from cultures grown on Sabarauds agar for 5 days, and resuspended in PBS/Tween 80 to approx 1×10^7 cfu/mL. Each organism suspension was diluted in YAG medium (1% glucose, 1% ammonium chloride and 0.5% yeast extract) to 0.5-2×10^4 cfu/mL. 80 μL of an organism suspension was added to each well of the plate containing drug dilutions.
(§10) All plates were incubated for 24 hrs at 35° C. Growth was assessed by monitoring the optical density at 485 nm for each well. The MIC of a compound is the lowest drug concentration that inhibits growth of an organism by >70% compared with a drug free control. MICs are recorded as mg/L. In cases where the MIC of an organism is […] the MIC is repeated using a concentration range of 0.5-0.0005 mg/L.

In assay [2] the test system is Aspergillus niger. Kind of assay: MIC in RPMI medium, A. niger. Type of assay: cell-based. Conditions: 24-48 hrs at 35° C., >80% growth inhibition, read-out: MIC grade, A. niger. How it is done:
as §7, §8
(§11) Assays were also performed in RPMI medium. To perform MIC tests in this medium, dilutions of compounds are prepared in microtitre plates as described above. Fungal strains to be tested are grown and harvested in an identical manner to that described above, and each organism suspension was diluted in RPMI medium, containing 2% glucose and 0.135 M MOPS buffer (pH 7.0) to 0.5-2×10^4 cfu/mL, rather than in YAG medium. 80 μL of an organism suspension was added to each well of the plate containing drug dilutions.
(§12) All plates were incubated for 24-48 hrs at 35° C. Growth was assessed by monitoring the optical density at 485 nm for each well. […] The following organisms were tested: Aspergillus flavus, Aspergillus fumigatus AF293 and AF210, Aspergillus niger and Aspergillus terreus AT4 and AT49.

In the next assay the test system is A. terreus 49. Description: MIC in YAG medium, A. terreus 49. The class given is cell-based. Conditions: Aspergillus terreus, 24 hrs at 35° C., >70% growth inhibition, read-out: MIC grade, A. terreus 49. The method, then:
as §7, §8, §9, §10

Another assay has as its system Aspergillus terreus AT49. Description: MIC in RPMI medium, A. terreus 49. The class given is cell-based. Conditions: 24-48 hrs at 35° C., >80% growth inhibition, read-out: MIC grade, A. terreus 49. The method, then: as §7, §8, §11, §12
The next assay deals with Aspergillus terreus AT4. Kind of assay: MIC in RPMI medium, A. terreus. Type of assay: cell-based. The conditions noted are these: 24-48 hrs at 35° C., >80% growth inhibition, read-out: MIC grade, A. terreus. How it is done:
as §7, §8, §11, §12

For assay [3], the target named is T2, Recombinant DHODH from human (Homo sapiens, UniProt Q02127).
T2 construct: His-tag; NusA (Nus-tag) fusion of vector pET43.1 (own knowledge of the vector) (N); made in house; host or cells: E. coli BL21 DE3
T2 sequence (Q02127 31-395 limits assumed): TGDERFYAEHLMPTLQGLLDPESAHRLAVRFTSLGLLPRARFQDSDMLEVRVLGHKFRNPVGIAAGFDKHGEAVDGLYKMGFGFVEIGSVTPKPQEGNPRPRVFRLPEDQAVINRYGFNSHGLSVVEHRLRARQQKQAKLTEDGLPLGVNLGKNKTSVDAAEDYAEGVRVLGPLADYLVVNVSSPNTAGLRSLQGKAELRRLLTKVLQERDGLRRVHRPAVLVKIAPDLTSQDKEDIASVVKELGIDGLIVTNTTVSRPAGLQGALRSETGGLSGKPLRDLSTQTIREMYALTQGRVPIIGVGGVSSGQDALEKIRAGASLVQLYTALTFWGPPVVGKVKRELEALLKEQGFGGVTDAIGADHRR
Description: DHODH inhibition screen (DCIP reduction, 600 nm), human enzyme. Type of assay: biochemical. The conditions noted are these: Table 3, read-out: IC50 values for Compound Examples 1 to 15 identified from screens, Human. The method, then: as §1, §2, §3, §4, §5, §6

Assay [4] relates to Aspergillus flavus. Kind of assay: MIC in RPMI medium, A. flavus. The class given is cell-based. Conditions: 24-48 hrs at 35° C., >80% growth inhibition, read-out: MIC grade, A. flavus. The method, then:
as §7, §8, §11, §12

Assay [5] deals with Recombinant A. fumigatus DHODH (Aspergillus fumigatus, UniProt Q4X169). Kind of assay: DHODH inhibition screen (DCIP reduction, 600 nm), A. fumigatus enzyme. Type of assay: biochemical. How it is done:
as §1
Buffer A: 62.5 mM TrisHCl (pH8.0), 150 mM NaCl, 10% v/v glycerol
DHO/Coenzyme Q2/DCIP solution: 19.848 mg dihydroorotate (DHO; Sigma) was dissolved in 160 μl DMSO. Coenzyme Q2 (Sigma) was dissolved in DMSO to give a concentration of 10 mg/ml. 7.236 mg 2,6-dichloroindophenol (DCIP; Sigma) was dissolved in 160 μl DMSO. The stock solution was made with 127.36 μl DHO, 127.36 μl DCIP and 318.4 μl Coenzyme Q2, made up to 80 ml with Buffer A. Final concentrations in assay wells were; DHO, 500 μM; Coenzyme Q, 50 μM; DCIP, 100 μM.
2. Compounds were aliquotted into 384-well microtitre plates at a range of dilutions to give final concentrations in the assay of […]. Duplicate sets of plates were used such that one set received enzyme while a control set received no enzyme. Since compounds are frequently dissolved in DMSO or a DMSO/water mixture, assays were set up to give a final concentration of 1% (v/v) DMSO in wells.
3. Recombinant A. fumigatus DHODH was suspended in Buffer A to give a concentration of 1435.8 ng protein in 20 μl. Then 20 μl of DHODH solution was added to all the +enzyme plates and 20 μl of Buffer A was added to all the control −enzyme plates.
as §5
Recombinant DHODH from human or C. albicans was assayed in the same way. It is necessary to adjust the enzyme concentration and reaction time to take into account variations in activity of enzyme batches, thus the incubation time was 20 minutes for the C. albicans enzyme and 34 minutes for the human enzyme. Compounds are screened against a fungal and human enzyme to identify compounds which are selective for the fungal enzyme.

Assay [6] concerns Aspergillus flavus. Kind of assay: MIC in YAG medium, A. flavus. Type of assay: cell-based. The conditions noted are these: 24 hrs at 35° C., >70% growth inhibition, read-out: MIC grade, A. flavus. How it is done: as §7, §8, §9, §10
The test system of assay [7] is Aspergillus niger. Kind of assay: MIC in YAG medium, A. niger. Type of assay: cell-based. Conditions: 24 hrs at 35° C., >70% growth inhibition, read-out: MIC grade, A. niger. How it is done:
as §7, §8, §9, §10

In assay [8] the test system is Aspergillus fumigatus AF293. Kind of assay: MIC in RPMI medium, A. fumigatus. Type of assay: cell-based. The conditions noted are these: 24-48 hrs at 35° C., >80% growth inhibition, read-out: MIC grade, A. fumigatus. The method, then:
as §7, §8, §11, §12

In assay [9] the test system is Aspergillus fumigatus AF210. Kind of assay: MIC in RPMI medium, A. fumigatus 210. The class given is cell-based. The conditions noted are these: 24-48 hrs at 35° C., >80% growth inhibition, read-out: MIC grade, A. fumigatus 210. How it is done:
as §7, §8, §11, §12

Another assay deals with A. fumigatus 210. Kind of assay: MIC in YAG medium, A. fumigatus 210. Conditions: Aspergillus fumigatus, 24 hrs at 35° C., >70% growth inhibition, read-out: MIC grade, A. fumigatus 210. Type of assay: cell-based. How it is done:
as §7, §8, §9, §10

The subject of another assay is Aspergillus terreus. Description: MIC in YAG medium, A. terreus. The class given is cell-based. Conditions: 24 hrs at 35° C., >70% growth inhibition, read-out: MIC grade, A. terreus. The method, then: as §7, §8, §9, §10

pIC50: −log10 of the molar value. Converted amounts (≈) assume the structure as drawn. Where only a bound is given, the exact number is not on record here.

Sequence of Recombinant A. fumigatus DHODH (Q4X169 entry or part of it): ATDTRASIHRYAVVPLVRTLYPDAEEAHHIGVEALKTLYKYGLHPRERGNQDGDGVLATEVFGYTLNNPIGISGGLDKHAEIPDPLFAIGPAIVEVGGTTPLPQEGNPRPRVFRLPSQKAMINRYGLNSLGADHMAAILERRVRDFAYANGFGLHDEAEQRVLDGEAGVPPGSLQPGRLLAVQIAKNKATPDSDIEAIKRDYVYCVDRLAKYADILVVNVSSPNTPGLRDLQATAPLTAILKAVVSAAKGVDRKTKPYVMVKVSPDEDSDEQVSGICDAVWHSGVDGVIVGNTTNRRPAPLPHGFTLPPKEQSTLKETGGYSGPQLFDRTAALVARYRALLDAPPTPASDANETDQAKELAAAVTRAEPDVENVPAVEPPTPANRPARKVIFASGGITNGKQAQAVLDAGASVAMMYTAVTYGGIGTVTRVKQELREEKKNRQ

In general, pIC50 refers to the IC50 on a negative log10 scale, so that one unit is a factor of ten. In the case of `Cc1c(-c2ccc(-c3ccccc3F)cc2)nc2ccc(F)cc2c1C(=O)O` [Brequinar, brequinar], in assay [1], the pIC50 was 3.84.
Broadly, the MIC is the smallest concentration in the dilution series that meets the test's criterion for growth inhibition. Regarding `COc1ccccc1-n1c(SC(C)C)nc2ccc(N(C)C)cc2c1=O` [Compound Example 6, 6-Dimethylamino-2-isopropylsulfanyl-3-(2-methoxy-phenyl)-3H-quinazolin-4-one], the MIC in the assay with Aspergillus fumigatus is 1 to 10 µg/mL (≈ 2.71 to 27.1 µM); in the assay on Aspergillus niger [2] it was less than 1 µg/mL; in the assay on A. terreus 49, 1 to 10 µg/mL (≈ 2.71 to 27.1 µM); in the assay with Aspergillus terreus AT49, more than 10 µg/mL; in the assay on Aspergillus terreus AT4, more than 10 µg/mL; in the assay with Aspergillus flavus [4], more than 10 µg/mL. Further, the MIC in the assay with Aspergillus flavus [6] was more than 10 µg/mL; in the assay with Aspergillus niger [7], less than 1 µg/mL; in assay [8], more than 10 µg/mL; in assay [9] it was 1 to 10 µg/mL (≈ 2.71 to 27.1 µM); in the assay with A. fumigatus 210 it was 1 to 10 µg/mL (≈ 2.71 to 27.1 µM); in the assay on Aspergillus terreus, 1 to 10 µg/mL (≈ 2.71 to 27.1 µM). The pIC50 in assay [3] is 5.96; in assay [5], 5.00.
